Assay results reported in patent US10858305B2, “Perillyl alcohol-3-bromopyruvate conjugate and methods of treating cancer” (NeOnc Technologies, Inc., priority 2016, dated 2020).
Entries after “also recorded” stand apart in the source; their conditions may differ. Like-named read-outs stand apart in the source and are kept apart here.

Legend:
[1] = test system: HCT116 3-BP survivors (MCT-1-negative) and parental cells; test: Selection of 3-BP survivors from HCT116 cells and MTT chemosensitivity; assay type: cell-based, human
Description: (A) Immunostaining of HCT116 cells in the absence of any drug treatment (parental cells; left panel) and after 2-week recovery from highly toxic 48-hour treatment with 40 μM 3-BP (3-BP survivors; right panel). Arrows point to a few apparently MCT-1-negative cells among the otherwise MCT-1-positive parental population. Note preferential staining of the cell membrane in the positive cells, consistent with the known transmembrane location of MCT-1; no such staining could be detected in the 3-BP survivors. (B) Western blot analysis of MCT-1 expression levels two weeks after 48-hour treatment of cells with increasing concentrations of 3-BP. […] GAPDH was used as a loading control. (C) Chemosensitivity of 3-BP survivors were compared to parental cells in MTT assays. Both populations were treated with increasing concentrations of 3-BP or NEO218. Survival of untreated cells was set at 100% (n≥3±SE).
Upon closer inspection of individual cells by immunohistochemistry, we detected a small number of apparently MCT-1-negative cells among the otherwise mostly MCT-1-positive population (FIG. 20A). This aspect was investigated further by treating HCT116 cells with 40 μM, representing a concentration that reduces apparent viability by 75% in MTT assays (FIG. 17A) and blocks colony formation by 99% in CFAs. […] These cells, which we called 3-BP survivors, were further analyzed. Intriguingly, no MCT-1 expression could be detected in these cells, neither by immunohistochemistry (FIG. 20A) nor by Western blot (FIG. 20B). […] Intriguingly, NEO218 had no such effect.

[2] = test system: HCT116 colon cancer cells; test: Cellular ATP content assay; assay type: cell-based, human; conditions: HCT116; 3 hours (FIG. 9) or 3 and 6 hours at 40 μM (FIG. 22)
Description: HCT116 cells were treated with 40 μM 3-BP or NEO218. As a point of reference, cells were also exposed to 100 nM rotenone in glucose-free medium. ATP levels were determined after 3 and 6 hours. ATP levels in untreated cells were set at 100% (corresponding to 26.6 nmol per one million cells).
HCT116 colon cancer cells were treated cells with: NEO218, 3-BP; rotenone (a mitochondrial poison that blocks the respiratory chain); medium without glucose (“no gluc”; in order to shut down glycolysis); and, rotenone in combination with absent glucose (to cease all intracellular ATP production). After 3 hours of treatment, a commercially available ATP detection assay kit was employed to determine the relative levels of ATP present.
ATP content of cells was measured with the ATP Colorimetric/Fluorometric Assay kit (Biovision Inc., Milpitas, Calif.), which utilizes the phosphorylation of glycerol to generate a product that is quantified by colorimetry at 570 nm. Approximately 1×10^6 cells were cultured in 10-cm tissue culture plates, exposed to drug treatment for various time periods, and then processed as per manufacturer's instructions. All ATP levels were normalized to untreated controls and presented as percentage of controls.

[3] = test system: HCT116, LN229, T98G, U251, MCF7, T47D, MDA-MB-231, MDA-MB-468, BTM-12, ME16C cells; test: 24-hour MTT assay in 10 cell lines with MCT-1 levels (FIGS. 16A-16C); assay type: cell-based; conditions: Homo sapiens, read-out: IC50 (concentration of drug that kills 50% of the cell population)
From the text: The following established human cell lines were used: (A) HCT116 colon carcinoma; (B) LN229, T98G, and U251 glioblastoma; (C) MCF7, MDA-MB-231, MDA-MB-468, BTM-12, and T47D breast carcinoma; and ME16C normal mammary gland epithelium cells (immortalized with telomerase). […] Bars with error bars represent ≥3 measurements, whereas graphs without error bars show the average of two independent measurements. The middle panels show MCT-1 protein levels for each cell line, as determined by Western blot with actin as the loading control.
(§1) Methylthiazoletetrazolium (MTT) assays were performed as described earlier.
Because it was reported that the cytotoxic effects of 3-BP in vitro depend on the presence of MCT-1, we began our study by characterizing MCT-1 expression levels along with cytotoxicity of 3-BP in the various tumor cell lines to be used in our study. We included one colon carcinoma cell line (HCT116), three glioblastoma cell lines (LN229, T98G, U251), four breast cancer cell lines (MCF7, T47D, MDA-MB-231, MDA-MB-468), one culture of primary breast cancer cells (BTM-12), and an established line of normal breast epithelial cells (ME16C). For all 10 cell lines, we established IC50 (concentration of drug that kills 50% of the cell population) by MTT assay, along with MCT-1 protein levels by Western blot analysis. As summarized in FIGS. 16A-16C, MCT-1 levels varied greatly in the different cells, and so did their IC50 values.

[4] = test system: HCT116 cells transfected with MCT-1 siRNA or scrambled control; test: MTT assay in HCT116 cells after siRNA knockdown of MCT-1; assay type: cell-based; conditions: Homo sapiens
Description: HCT116 cells were transfected with siRNA targeted at MCT-1 (circles), or with a scrambled control (diamonds). (A) Cellular sensitivity to 3-BP and NEO218 was determined by MTT assay. Dotted lines and arrow show the shift in IC50. Note pronounced shift to the right in 3-BP-treated cells (left, panel), compared to a minor shift to the left in NEO218-treated cells (right panel). (B) Knockdown of MCT-1 protein levels was confirmed by Western blot analysis with actin as the loading control. (C) MCT-1 knockdown was also confirmed at the individual cell level by immunocytochemistry. The two photos were similarly overexposed in order to emphasize the pronounced difference in MCT-1 levels.
as §1
All siRNAs were purchased from Qiagen, Valencia, Calif. To knock down MCT1 expression, we used siRNA Hs_SLC16A1_6 (target sequence: 5′-[…]-3′). As a non-silencing control, we used AllStars Negative Control siRNA, which lacks homology to any known mammalian gene. One hundred thousand cells per well of a 6-well plate were transfected with 50 nM siRNA using jetPRIME transfection reagent and buffer (Polyplus Transfection, New York, N.Y.). Medium was changed after 24 hours and cells were subjected to experiments 72 hours after transfection. 2.10. Immunoblots

SMILES	sensitivity of 3-BP survivors ([1]; 3-BP survivors of HCT116, MTT)	surviving cells after treatment ([1]; parental HCT116, 40 μM)	depletion of cellular ATP pools [2]	IC50 ([3]; all 10 cell lines, irrespective of MCT-1 expression)	IC50 ([4]; HCT-116, HCT116, MCT-1 siRNA knockdown, read-out: IC50 (MTT))	IC50 ([4]; HCT-116, HCT116, scrambled control siRNA, read-out: IC50 (MTT))	IC50 ([1]; Homo sapiens, HCT-116, read-out: IC50 (MTT))	IC50 ([3]; 24 h, cells with high MCT-1 levels (HCT116, U251, ME16C, MDA-MB-468), 24 hours)	IC50 ([3]; 24 h, cells with lesser MCT-1 levels, 24 hours)	IC50 ([4]; HCT-116, read-out: IC50 (MTT), HCT116, MCT-1 siRNA knockdown)	IC50 ([4]; HCT-116, read-out: IC50 (MTT), HCT116, scrambled control siRNA)
C=C(C)[C@@H]1CC=C(COC(=O)C(=O)CBr)CC1 [NEO218, 3-bromo-2-oxo-propionic acid 4-isopropenyl-cyclohex-1-enylmethyl ester]	retained their high sensitivity toward NEO218	did not leave any surviving cells	nearly identical outcomes; also recorded: potently depletes the levels of cellular ATP pools	15 to 25 µM	15 µM	19 µM	–	–	–	–	–
O=C(O)C(=O)CBr [3-BP, 3-bromopyruvate]	–	–	nearly identical outcomes; also recorded: potently depletes the levels of cellular ATP pools	–	–	–	> 100 µM	15 to 60 µM	150 to 300 µM	67 µM	20 µM
